Holding throughout (assay type): in vivo
What all share (conditions): evaluated after 13 days

The subject of test [1] is Zea mays (ZEAMX). As to the kind of experiment: Post-emergence Test, Zea mays (ZEAMX). On the set-up: key to percentage damage caused to the plant, ZEAMX (five-point scale): 5=81-100%, 4=61-80%, 3=41-60%, 2=21-40%, 1=0-20% damage. Put shortly:
(§1)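 Spray application at 1000 g/ha unless otherwise stated. Damage was scored 13 days later as 1 (0-20%) to 5 (81-100%).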

The test system of test [2] is Ipomoea hederacea (IPOHE). Put plainly: Pre-emergence Test, Ipomoea hederacea (IPOHE).
The test system of test [3] is Amaranthus palmeri (AMAPA). Put plainly: Pre-emergence Test, Amaranthus palmeri (AMAPA).
In test [4] the test system is Zea mays (ZEAMX). As to the kind of experiment: Pre-emergence Test, Zea mays (ZEAMX).
Test [5] relates to Setaria faberi (SETFA). As to the kind of experiment: Post-emergence Test, Setaria faberi (SETFA). On the set-up: key to percentage damage caused to the plant, SETFA (five-point scale): 5=81-100%, 4=61-80%, 3=41-60%, 2=21-40%, 1=0-20% damage. In outline:
as §1

Test [6] has as its system Echinochloa crus-galli (ECHCG). Put plainly: Post-emergence Test, Echinochloa crus-galli (ECHCG). On the set-up: key to percentage damage caused to the plant, ECHCG (five-point scale): 5=81-100%, 4=61-80%, 3=41-60%, 2=21-40%, 1=0-20% damage. Put shortly:
as §1

Test [7] concerns Setaria faberi (SETFA). Put plainly: Pre-emergence Test, Setaria faberi (SETFA).
For test [8], the system named is Amaranthus retoflexus (AMARE). As to the kind of experiment: Pre-emergence Test, Amaranthus retoflexus (AMARE).
For test [9], the system named is Echinochloa crus-galli (ECHCG). As to the kind of experiment: Pre-emergence Test, Echinochloa crus-galli (ECHCG).
Test [10] has as its system Amaranthus retoflexus (AMARE). Put plainly: Post-emergence Test, Amaranthus retoflexus (AMARE). Also noted: key to percentage damage caused to the plant, AMARE (five-point scale): 5=81-100%, 4=61-80%, 3=41-60%, 2=21-40%, 1=0-20% damage. Put shortly:
as §1

Test [11] concerns Ipomoea hederacea (IPOHE). As to the kind of experiment: Post-emergence Test, Ipomoea hederacea (IPOHE). On the set-up: key to percentage damage caused to the plant, IPOHE (five-point scale): 5=81-100%, 4=61-80%, 3=41-60%, 2=21-40%, 1=0-20% damage. Put shortly:
as §1

The subject of test [12] is Amaranthus palmeri (AMAPA). Put plainly: Post-emergence Test, Amaranthus palmeri (AMAPA). Also noted: key: 5=81-100%, 4=61-80%, 3=41-60%, 2=21-40%, 1=0-20% damage. In outline:
as §1

Turning to `CCn1c(Cn2nc(C(F)(F)F)cc2OC(F)F)cc(=O)c(C(=O)O)c1-c1ccc(Cl)c(Cl)c1` [Compound 151, 2-(3,4-dichlorophenyl)-6-[[5-(difluoromethoxy)-3-(trifluoromethyl)pyrazol-1-yl]methyl]-1-ethyl-4-oxo-pyridine-3-carboxylic acid], the “percentage damage caused to the plant, ZEAMX (five-point scale)” value in test [1] (250 g/Ha) is on record as 1 (1=0-20%); in test [1] (1000 g/ha) it was 3 (3=41-60%). In addition, the entries for the “Pre-emergence Test IPOHE, percentage damage caused to the plant (five-point scale)” value in test [2] (250 g/Ha (*)) and in test [2] (1000 g/ha) were 2 (2=21-40%) and 4 (4=61-80%), respectively. In addition, the “Pre-emergence Test AMAPA, percentage damage caused to the plant (five-point scale)” value in test [3] (250 g/Ha (*)) is on record as 0; in test [3] (1000 g/ha) it was 1 (1=0-20%). The “Pre-emergence Test ZEAMX, percentage damage caused to the plant (five-point scale)” value in [4] (250 g/Ha (*)) and in [4] (1000 g/ha) was 2 (2=21-40%) throughout. The “percentage damage caused to the plant, SETFA (five-point scale)” value in test [5] (250 g/Ha) and in test [5] (1000 g/ha) was 4 (4=61-80%) throughout. The entries for the “percentage damage caused to the plant, ECHCG (five-point scale)” value in [6] (250 g/Ha) and in [6] (1000 g/ha) were 3 (3=41-60%) and 4 (4=61-80%), respectively. The “Pre-emergence Test SETFA, percentage damage caused to the plant (five-point scale)” value in test [7] (250 g/Ha (*)) and in test [7] (1000 g/ha) was 5 (5=81-100%) throughout. Moreover, the “Pre-emergence Test AMARE, percentage damage caused to the plant (five-point scale)” value in test [8] (250 g/Ha (*)) and in test [8] (1000 g/ha) was 0 each time. For the same compound, the “Pre-emergence Test ECHCG, percentage damage caused to the plant (five-point scale)” value in test [9] (250 g/Ha (*)) and in test [9] (1000 g/ha) was 5 (5=81-100%) in each case. Also, the entries for the “percentage damage caused to the plant, AMARE (five-point scale)” value in [10] (250 g/Ha) and in test [10] (1000 g/ha) were 1 (1=0-20%) and 3 (3=41-60%), respectively. Also, the “percentage damage caused to the plant, IPOHE (five-point scale)” value in test [11] (250 g/Ha) and in [11] (1000 g/ha) was 4 (4=61-80%) in each case. Further, the “percentage damage caused to the plant, AMAPA (five-point scale)” value is 1 (1=0-20%) in test [12] (250 g/Ha) and 2 (2=21-40%) in [12] (1000 g/ha).
For `CCCOc1ccn(Cc2cc(=O)c(C(=O)O)c(-c3ccc(Cl)c(Cl)c3)n2CC)n1` [Compound 160, 2-(3,4-dichlorophenyl)-1-ethyl-4-oxo-6-[(3-propoxypyrazol-1-yl)methyl]pyridine-3-carboxylic acid], the “percentage damage caused to the plant, ZEAMX (five-point scale)” value is 1 (1=0-20%) in test [1] (250 g/Ha) and 4 (4=61-80%) in [1] (1000 g/ha). The “Pre-emergence Test IPOHE, percentage damage caused to the plant (five-point scale)” value in test [2] (250 g/Ha (*)) and in test [2] (1000 g/ha) was 2 (2=21-40%) in each case. Further, the “Pre-emergence Test AMAPA, percentage damage caused to the plant (five-point scale)” value in [3] (250 g/Ha (*)) and in test [3] (1000 g/ha) was 0 in each case. Moreover, the “Pre-emergence Test ZEAMX, percentage damage caused to the plant (five-point scale)” value in test [4] (250 g/Ha (*)) is recorded as 0; in [4] (1000 g/ha), 3 (3=41-60%). Further, the “percentage damage caused to the plant, SETFA (five-point scale)” value is 2 (2=21-40%) in test [5] (250 g/Ha) and 4 (4=61-80%) in test [5] (1000 g/ha). For the same compound, the “percentage damage caused to the plant, ECHCG (five-point scale)” value is reported as 2 (2=21-40%) in [6] (250 g/Ha) and 4 (4=61-80%) in test [6] (1000 g/ha). Further, the “Pre-emergence Test SETFA, percentage damage caused to the plant (five-point scale)” value in test [7] (250 g/Ha (*)) is listed as 2 (2=21-40%); in test [7] (1000 g/ha), 5 (5=81-100%). In addition, the “Pre-emergence Test AMARE, percentage damage caused to the plant (five-point scale)” value in test [8] (250 g/Ha (*)) was 0; in [8] (1000 g/ha), 1 (1=0-20%). Further, the “Pre-emergence Test ECHCG, percentage damage caused to the plant (five-point scale)” value is listed as 2 (2=21-40%) in [9] (250 g/Ha (*)) and 5 (5=81-100%) in test [9] (1000 g/ha). Moreover, the “percentage damage caused to the plant, AMARE (five-point scale)” value in test [10] (250 g/Ha) is 0; in [10] (1000 g/ha) it was 1 (1=0-20%). The “percentage damage caused to the plant, IPOHE (five-point scale)” value in test [11] (250 g/Ha) and in [11] (1000 g/ha) was 3 (3=41-60%) each time. For the same compound, the “percentage damage caused to the plant, AMAPA (five-point scale)” value in test [12] (250 g/Ha) was 0; in test [12] (1000 g/ha) it was 1 (1=0-20%).
As to `CCn1c(Cn2ccc(OCCOC)n2)cc(=O)c(C(=O)O)c1-c1ccc(Cl)c(Cl)c1` [Compound 161, 2-(3,4-dichlorophenyl)-1-ethyl-6-[[3-(2-methoxyethoxy)pyrazol-1-yl]methyl]-4-oxo-pyridine-3-carboxylic acid], the “percentage damage caused to the plant, ZEAMX (five-point scale)” value in test [1] (250 g/Ha) and in test [1] (1000 g/ha) was 1 (1=0-20%) throughout. Besides, the “Pre-emergence Test IPOHE, percentage damage caused to the plant (five-point scale)” value in test [2] (250 g/Ha (*)) is 0; in test [2] (1000 g/ha), 3 (3=41-60%). Also, the “Pre-emergence Test AMAPA, percentage damage caused to the plant (five-point scale)” value in [3] (250 g/Ha (*)) is reported as 0; in test [3] (1000 g/ha), 1 (1=0-20%). Further, the “Pre-emergence Test ZEAMX, percentage damage caused to the plant (five-point scale)” value in [4] (250 g/Ha (*)) and in test [4] (1000 g/ha) was 0 throughout. For the same compound, the figures for the “percentage damage caused to the plant, SETFA (five-point scale)” value in test [5] (250 g/Ha) and in test [5] (1000 g/ha) were 2 (2=21-40%) and 3 (3=41-60%), respectively. Besides, the “percentage damage caused to the plant, ECHCG (five-point scale)” value in test [6] (250 g/Ha) is 2 (2=21-40%); in [6] (1000 g/ha), 3 (3=41-60%). Further, the figures for the “Pre-emergence Test SETFA, percentage damage caused to the plant (five-point scale)” value in test [7] (250 g/Ha (*)) and in test [7] (1000 g/ha) were 1 (1=0-20%) and 4 (4=61-80%), respectively. For the same compound, the “Pre-emergence Test AMARE, percentage damage caused to the plant (five-point scale)” value in [8] (250 g/Ha (*)) and in [8] (1000 g/ha) was 0 in each case. Besides, the “Pre-emergence Test ECHCG, percentage damage caused to the plant (five-point scale)” value in test [9] (250 g/Ha (*)) was 0; in [9] (1000 g/ha), 3 (3=41-60%). The “percentage damage caused to the plant, AMARE (five-point scale)” value is given as 1 (1=0-20%) in [10] (250 g/Ha) and 0 in [10] (1000 g/ha). Moreover, the figures for the “percentage damage caused to the plant, IPOHE (five-point scale)” value in test [11] (250 g/Ha) and in test [11] (1000 g/ha) were 1 (1=0-20%) and 3 (3=41-60%), respectively. The results for the “percentage damage caused to the plant, AMAPA (five-point scale)” value in [12] (250 g/Ha) and in [12] (1000 g/ha) were 0 and 1 (1=0-20%), respectively.
As for `C=CCOc1ccn(Cc2cc(=O)c(C(=O)O)c(-c3ccc(Cl)c(Cl)c3)n2CC)n1` [Compound 163, 6-[(3-allyloxypyrazol-1-yl)methyl]-2-(3,4-dichlorophenyl)-1-ethyl-4-oxo-pyridine-3-carboxylic acid], the “percentage damage caused to the plant, ZEAMX (five-point scale)” value in test [1] (1000 g/ha) was 1 (1=0-20%). For the same compound, the entries for the “Pre-emergence Test IPOHE, percentage damage caused to the plant (five-point scale)” value in test [2] (250 g/Ha (*)) and in test [2] (1000 g/ha) were 1 (1=0-20%) and 3 (3=41-60%), respectively. The “Pre-emergence Test AMAPA, percentage damage caused to the plant (five-point scale)” value in test [3] (250 g/Ha (*)) and in test [3] (1000 g/ha) was 0 throughout. The entries for the “Pre-emergence Test ZEAMX, percentage damage caused to the plant (five-point scale)” value in [4] (250 g/Ha (*)) and in [4] (1000 g/ha) were 0 and 2 (2=21-40%), respectively. Also, the “percentage damage caused to the plant, SETFA (five-point scale)” value in test [5] (1000 g/ha) is reported as 4 (4=61-80%). Further, the “percentage damage caused to the plant, ECHCG (five-point scale)” value in test [6] (1000 g/ha) is 3 (3=41-60%). For the same compound, the “Pre-emergence Test SETFA, percentage damage caused to the plant (five-point scale)” value is 0 in test [7] (250 g/Ha (*)) and 3 (3=41-60%) in test [7] (1000 g/ha). The “Pre-emergence Test AMARE, percentage damage caused to the plant (five-point scale)” value in test [8] (250 g/Ha (*)) and in test [8] (1000 g/ha) was 0 in each case. Besides, the results for the “Pre-emergence Test ECHCG, percentage damage caused to the plant (five-point scale)” value in test [9] (250 g/Ha (*)) and in test [9] (1000 g/ha) were 1 (1=0-20%) and 4 (4=61-80%), respectively. Also, the “percentage damage caused to the plant, AMARE (five-point scale)” value in [10] (1000 g/ha) was 1 (1=0-20%). The “percentage damage caused to the plant, IPOHE (five-point scale)” value in test [11] (1000 g/ha) is 2 (2=21-40%). Further, the “percentage damage caused to the plant, AMAPA (five-point scale)” value in [12] (1000 g/ha) was 1 (1=0-20%).

The record behind these values is patent publication US20250098679A1, “HERBICIDAL PYRIDONE DERIVATIVES” (SYNGENTA CROP PROTECTION AG, priority 2021, published 2025).
